Assay results published in PubChem BioAssay (NCI).
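Each compound was tested at five concentrations against cells in 96-well plates for 48 hours. TGI: total growth inhibition.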

Columns and labels:
Test in all cases: NCI anticancer screen, dose series, 48 h
HCT-116 colon = tested on: HCT-116 colon
SK-MEL-2 melanoma = tested on: SK-MEL-2 melanoma
LXFL 529 NSCLC = tested on: LXFL 529 NSCLC
K-562 leukemia = tested on: K-562 leukemia
COLO 205 colon = tested on: COLO 205 colon
HT29 colon = tested on: HT29 colon
UACC-62 melanoma = tested on: UACC-62 melanoma
OVCAR-8 ovarian = tested on: OVCAR-8 ovarian
SF-295 CNS = tested on: SF-295 CNS
SNB-78 CNS = tested on: SNB-78 CNS
OVCAR-3 ovarian = tested on: OVCAR-3 ovarian
NCI-H226 lung = tested on: NCI-H226 lung
EKVX NSCLC = tested on: EKVX NSCLC
HL-60(TB) leukemia = tested on: HL-60(TB) leukemia
KM12 colon = tested on: KM12 colon
DMS 273 small cell lung = tested on: DMS 273 small cell lung
NCI-H23 lung = tested on: NCI-H23 lung
M19-MEL melanoma = tested on: M19-MEL melanoma
ACHN renal = tested on: ACHN renal
SK-OV-3 ovarian = tested on: SK-OV-3 ovarian
SN12C renal = tested on: SN12C renal
HOP-18 NSCLC = tested on: HOP-18 NSCLC
RXF 393 renal = tested on: RXF 393 renal
HOP-62 NSCLC = tested on: HOP-62 NSCLC
MALME-3M melanoma = tested on: MALME-3M melanoma
NCI-H522 lung = tested on: NCI-H522 lung
DMS 114 small cell lung = tested on: DMS 114 small cell lung
KM20L2 colon = tested on: KM20L2 colon
DLD-1 colon = tested on: DLD-1 colon
SNB-19 CNS = tested on: SNB-19 CNS
HOP-92 NSCLC = tested on: HOP-92 NSCLC
LOX IMVI melanoma = tested on: LOX IMVI melanoma
OVCAR-5 ovarian = tested on: OVCAR-5 ovarian
TK-10 renal = tested on: TK-10 renal
CAKI-1 renal = tested on: CAKI-1 renal
A498 renal = tested on: A498 renal
HCT-15 colon = tested on: HCT-15 colon
HCC-2998 colon = tested on: HCC-2998 colon
UO-31 renal = tested on: UO-31 renal
A549 NSCLC = tested on: A549 NSCLC
SK-MEL-5 melanoma = tested on: SK-MEL-5 melanoma
786-0 renal = tested on: 786-0 renal
CCRF-CEM leukemia = tested on: CCRF-CEM leukemia
SW-620 colon = tested on: SW-620 colon
IGROV1 ovarian = tested on: IGROV1 ovarian
OVCAR-4 ovarian = tested on: OVCAR-4 ovarian
M14 melanoma = tested on: M14 melanoma
SNB-75 CNS = tested on: SNB-75 CNS
NCI-H460 lung = tested on: NCI-H460 lung
U251 CNS = tested on: U251 CNS
SK-MEL-28 melanoma = tested on: SK-MEL-28 melanoma
SF-268 CNS = tested on: SF-268 CNS
UACC-257 melanoma = tested on: UACC-257 melanoma
MOLT-4 leukemia = tested on: MOLT-4 leukemia
RPMI-8226 leukemia = tested on: RPMI-8226 leukemia
SR leukemia = tested on: SR leukemia
SF-539 CNS = tested on: SF-539 CNS

In the case of CCOC(=O)/C=C1/Oc2ccccc2C1(C)O (stereo unspecified), the TGI (HCT-116 colon) is reported as over 100 µM, the TGI (SK-MEL-2 melanoma) is reported as over 100 µM and the TGI (LXFL 529 NSCLC) is reported as over 100 µM. For the same compound, the TGI (K-562 leukemia) was over 100 µM, the TGI (COLO 205 colon) was over 100 µM and the TGI (HT29 colon) was over 100 µM. For the same compound, the TGI (UACC-62 melanoma) was over 100 µM, the TGI (OVCAR-8 ovarian) was over 100 µM and the TGI (SF-295 CNS) was over 100 µM. The TGI (SNB-78 CNS) was over 100 µM, the TGI (OVCAR-3 ovarian) was over 100 µM and the TGI (NCI-H226 lung) was over 100 µM. The TGI (EKVX NSCLC) was over 100 µM, the TGI (HL-60(TB) leukemia) was over 100 µM and the TGI (KM12 colon) was over 100 µM. For the same compound, the TGI (DMS 273 small cell lung) was over 100 µM, the TGI (NCI-H23 lung) was over 100 µM and the TGI (M19-MEL melanoma) was over 100 µM. It also gave a TGI (ACHN renal) of over 100 µM, a TGI (SK-OV-3 ovarian) of over 100 µM and a TGI (SN12C renal) of over 100 µM. It also gave a TGI (HOP-18 NSCLC) of over 100 µM, a TGI (RXF 393 renal) of over 100 µM and a TGI (HOP-62 NSCLC) of over 100 µM. The TGI (MALME-3M melanoma) was over 100 µM, the TGI (NCI-H522 lung) was over 100 µM and the TGI (DMS 114 small cell lung) was over 100 µM. For the same compound, the TGI (KM20L2 colon) was over 100 µM, the TGI (DLD-1 colon) was over 100 µM and the TGI (SNB-19 CNS) was over 100 µM. The TGI (HOP-92 NSCLC) was over 100 µM, the TGI (LOX IMVI melanoma) was over 100 µM and the TGI (OVCAR-5 ovarian) was over 100 µM. The TGI (TK-10 renal) was over 100 µM, the TGI (CAKI-1 renal) was over 100 µM and the TGI (A498 renal) was over 100 µM. The TGI (HCT-15 colon) was over 100 µM, the TGI (HCC-2998 colon) was over 100 µM and the TGI (UO-31 renal) was over 100 µM. For the same compound, the TGI (A549 NSCLC) was over 100 µM, the TGI (SK-MEL-5 melanoma) was over 100 µM and the TGI (786-0 renal) was over 100 µM. For the same compound, the TGI (CCRF-CEM leukemia) was over 100 µM, the TGI (SW-620 colon) was over 100 µM and the TGI (IGROV1 ovarian) was over 100 µM. It also gave a TGI (OVCAR-4 ovarian) of over 100 µM, a TGI (M14 melanoma) of over 100 µM and a TGI (SNB-75 CNS) of over 100 µM. It also gave a TGI (NCI-H460 lung) of over 100 µM, a TGI (U251 CNS) of over 100 µM and a TGI (SK-MEL-28 melanoma) of over 100 µM. It also gave a TGI (SF-268 CNS) of over 100 µM, a TGI (UACC-257 melanoma) of over 100 µM and a TGI (MOLT-4 leukemia) of over 100 µM. It also gave a TGI (RPMI-8226 leukemia) of over 100 µM.
In the case of Cc1ccc(S(=O)(=O)OCC23CCC(C2)C2CC23)cc1 (stereo unspecified), the TGI (SR leukemia) is reported as over 100 µM, the TGI (HCT-116 colon) is reported as over 100 µM and the TGI (LXFL 529 NSCLC) is reported as over 100 µM. For the same compound, the TGI (K-562 leukemia) was over 100 µM, the TGI (COLO 205 colon) was over 100 µM and the TGI (HT29 colon) was over 100 µM. It also gave a TGI (UACC-62 melanoma) of over 100 µM, a TGI (OVCAR-8 ovarian) of over 100 µM and a TGI (SF-295 CNS) of over 100 µM. The TGI (OVCAR-3 ovarian) was over 100 µM, the TGI (NCI-H226 lung) was over 100 µM and the TGI (HL-60(TB) leukemia) was 98.8 µM. For the same compound, the TGI (DMS 273 small cell lung) was over 100 µM, the TGI (NCI-H23 lung) was over 100 µM and the TGI (M19-MEL melanoma) was over 100 µM. For the same compound, the TGI (ACHN renal) was over 100 µM, the TGI (SK-OV-3 ovarian) was over 100 µM and the TGI (SN12C renal) was over 100 µM. For the same compound, the TGI (HOP-18 NSCLC) was over 100 µM, the TGI (HOP-62 NSCLC) was over 100 µM and the TGI (MALME-3M melanoma) was over 100 µM. For the same compound, the TGI (DMS 114 small cell lung) was over 100 µM, the TGI (KM20L2 colon) was over 100 µM and the TGI (DLD-1 colon) was over 100 µM. The TGI (SNB-19 CNS) was over 100 µM, the TGI (HOP-92 NSCLC) was 94.8 µM and the TGI (LOX IMVI melanoma) was over 100 µM. The TGI (OVCAR-5 ovarian) was over 100 µM, the TGI (TK-10 renal) was over 100 µM and the TGI (CAKI-1 renal) was over 100 µM. It also gave a TGI (A498 renal) of over 100 µM, a TGI (HCT-15 colon) of over 100 µM and a TGI (HCC-2998 colon) of over 100 µM. It also gave a TGI (UO-31 renal) of over 100 µM, a TGI (A549 NSCLC) of over 100 µM and a TGI (SK-MEL-5 melanoma) of over 100 µM. It also gave a TGI (786-0 renal) of over 100 µM, a TGI (CCRF-CEM leukemia) of over 100 µM and a TGI (SW-620 colon) of over 100 µM. It also gave a TGI (IGROV1 ovarian) of over 100 µM, a TGI (OVCAR-4 ovarian) of over 100 µM and a TGI (M14 melanoma) of over 100 µM. It also gave a TGI (NCI-H460 lung) of over 100 µM, a TGI (U251 CNS) of over 100 µM and a TGI (SK-MEL-28 melanoma) of over 100 µM. It also gave a TGI (SF-268 CNS) of over 100 µM, a TGI (UACC-257 melanoma) of over 100 µM and a TGI (MOLT-4 leukemia) of over 100 µM. It also gave a TGI (RPMI-8226 leukemia) of over 100 µM.
For CCOC(=O)c1c(NNc2ccccc2)nc2ccccc2c1-c1ccccc1, the TGI (SR leukemia) was 56.4 µM, the TGI (HCT-116 colon) was 47.2 µM and the TGI (SK-MEL-2 melanoma) was 32.1 µM. For the same compound, the TGI (LXFL 529 NSCLC) was over 100 µM, the TGI (K-562 leukemia) was 77.9 µM and the TGI (COLO 205 colon) was over 100 µM. The TGI (HT29 colon) was over 100 µM, the TGI (UACC-62 melanoma) was 32 µM and the TGI (OVCAR-8 ovarian) was 82.2 µM. It also gave a TGI (SF-295 CNS) of over 100 µM, a TGI (SNB-78 CNS) of 88.6 µM and a TGI (OVCAR-3 ovarian) of 67 µM. It also gave a TGI (NCI-H226 lung) of 92 µM, a TGI (EKVX NSCLC) of over 100 µM and a TGI (HL-60(TB) leukemia) of 44.3 µM. The TGI (KM12 colon) was over 100 µM, the TGI (DMS 273 small cell lung) was over 100 µM and the TGI (NCI-H23 lung) was 50.9 µM. The TGI (M19-MEL melanoma) was 52.5 µM, the TGI (ACHN renal) was over 100 µM and the TGI (SK-OV-3 ovarian) was over 100 µM. The TGI (SN12C renal) was 92.3 µM, the TGI (HOP-18 NSCLC) was 77.3 µM and the TGI (RXF 393 renal) was 86.3 µM. For the same compound, the TGI (SF-539 CNS) was 74.9 µM, the TGI (HOP-62 NSCLC) was 59.3 µM and the TGI (MALME-3M melanoma) was 64.3 µM. The TGI (NCI-H522 lung) was 56.8 µM, the TGI (DMS 114 small cell lung) was 32.9 µM and the TGI (KM20L2 colon) was over 100 µM. It also gave a TGI (DLD-1 colon) of over 100 µM, a TGI (SNB-19 CNS) of over 100 µM and a TGI (HOP-92 NSCLC) of over 100 µM. For the same compound, the TGI (LOX IMVI melanoma) was 40.1 µM, the TGI (OVCAR-5 ovarian) was over 100 µM and the TGI (TK-10 renal) was over 100 µM. For the same compound, the TGI (CAKI-1 renal) was over 100 µM, the TGI (A498 renal) was over 100 µM and the TGI (HCT-15 colon) was over 100 µM. For the same compound, the TGI (HCC-2998 colon) was over 100 µM, the TGI (UO-31 renal) was 66.3 µM and the TGI (A549 NSCLC) was 95.7 µM. The TGI (SK-MEL-5 melanoma) was 35.2 µM, the TGI (786-0 renal) was over 100 µM and the TGI (CCRF-CEM leukemia) was 58.3 µM. It also gave a TGI (SW-620 colon) of over 100 µM, a TGI (IGROV1 ovarian) of over 100 µM and a TGI (OVCAR-4 ovarian) of over 100 µM. The TGI (M14 melanoma) was 80.8 µM, the TGI (SNB-75 CNS) was 93.2 µM and the TGI (NCI-H460 lung) was 67.3 µM. The TGI (U251 CNS) was over 100 µM, the TGI (SK-MEL-28 melanoma) was over 100 µM and the TGI (SF-268 CNS) was 91.9 µM. The TGI (UACC-257 melanoma) was over 100 µM, the TGI (MOLT-4 leukemia) was 42.9 µM and the TGI (RPMI-8226 leukemia) was 47.3 µM.
